Assays:
[1] = target: purified human autoBACE-2 (Homo sapiens (Human), UniProt Q9Y5Z0); experiment: BACE-2 Assay (BACE-HTRF assay); type: biochemical; details: Ki calculated from IC50 using the Cheng-Prusoff equation; QSY7-EISEVNLDAEFC-Eu-amide substrate, pH 5.0
Description: Inhibitor IC50s at purified human autoBACE-2 are determined in a time-resolved endpoint proteolysis assay that measures hydrolysis of the QSY7-[…]-Eu-amide FRET peptide substrate (BACE-HTRF assay). […] DMSO is present at 5% final concentration in the assay. Following laser excitation of sample wells at 320 nm, the fluorescence signal at 620 nm is collected for 400 ms following a 50 μs delay on a RUBYstar HTRF plate reader (BMG Labtechnologies). Raw RFU data is normalized to maximum (1.0 nM BACE/DMSO) and minimum (no enzyme/DMSO) RFU values. […] The Ki values are calculated from the IC50 using the Cheng-Prusoff equation.

[2] = target: soluble human BACE1 catalytic domain (Homo sapiens (Human), UniProt P56817); experiment: BACE1 HTRF FRET Assay; type: biochemical; details: Ki calculated from IC50 using the Cheng-Prusoff equation; QSY7-APPswe-Eu substrate, pH 5.0; read-out: BACE-1 Ki
From the text: Na^+-Acetate pH 5.0; 1% Brij-35; Glycerol; Dimethyl Sulfoxide (DMSO); Recombinant human soluble BACE1 catalytic domain (>95% pure); APP Swedish mutant peptide substrate (QSY7-APP^swe-Eu): QSY7-EISEVNLDAEFC-Europium-amide.
A homogeneous time-resolved FRET assay can be used to determine IC50 values for inhibitors of the soluble human BACE1 catalytic domain. This assay monitors the increase of 620 nm fluorescence that resulted from BACE1 cleavage of an APPswedish APP^swe mutant peptide FRET substrate (QSY7-EISEVNLDAEFC-Europium-amide). This substrate contains an N-terminal QSY7 moiety that serves as a quencher of the C-terminal Europium fluorophore (620 nm Em). In the absence of enzyme activity, 620 nm fluorescence is low in the assay and increased linearly over 3 hours in the presence of uninhibited BACE1 enzyme. Inhibition of BACE1 cleavage of the QSY7-APP^swe-Eu substrate by inhibitors is manifested as a suppression of 620 nm fluorescence.
Varying concentrations of inhibitors at 3× the final desired concentration in a volume of 10 ul are preincubated with purified human BACE1 catalytic domain (3 nM in 10 μl) for 30 minutes at 30° C. in reaction buffer containing 20 mM Na-Acetate pH 5.0, 10% glycerol, 0.1% Brij-35 and 7.5% DSMO. Reactions are initiated by addition of 10 μl of 600 nM QSY7-APP^swe-Eu substrate (200 nM final) to give a final reaction volume of 30 μl in a 384 well Nunc HTRF plate. The reactions are incubated at 30° C. for 1.5 hours. The 620 nm fluorescence is then read on a Rubystar HTRF plate reader (BMG Labtechnologies) using a 50 millisecond delay followed by a 400 millisecond acquisition time window. Inhibitor IC50 values are derived from non-linear regression analysis of concentration response curves. Ki values are then calculated from IC50 values using the Cheng-Prusoff equation using a previously determined […] of 8 μM for the QSY7-APP^swe-Eu substrate at BACE1.

Chain of soluble human BACE1 catalytic domain (P56817 75-416): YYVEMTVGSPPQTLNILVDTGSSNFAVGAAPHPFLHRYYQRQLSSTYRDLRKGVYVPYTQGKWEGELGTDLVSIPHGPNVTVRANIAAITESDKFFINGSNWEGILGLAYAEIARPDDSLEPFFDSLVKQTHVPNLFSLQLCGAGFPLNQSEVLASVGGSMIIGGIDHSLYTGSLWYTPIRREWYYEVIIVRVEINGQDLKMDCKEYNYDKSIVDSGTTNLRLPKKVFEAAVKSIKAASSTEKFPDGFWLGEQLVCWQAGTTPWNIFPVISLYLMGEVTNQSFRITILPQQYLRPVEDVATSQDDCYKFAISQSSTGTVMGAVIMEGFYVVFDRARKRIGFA
Chain of purified human autoBACE-2 (Q9Y5Z0 63-473 limits assumed): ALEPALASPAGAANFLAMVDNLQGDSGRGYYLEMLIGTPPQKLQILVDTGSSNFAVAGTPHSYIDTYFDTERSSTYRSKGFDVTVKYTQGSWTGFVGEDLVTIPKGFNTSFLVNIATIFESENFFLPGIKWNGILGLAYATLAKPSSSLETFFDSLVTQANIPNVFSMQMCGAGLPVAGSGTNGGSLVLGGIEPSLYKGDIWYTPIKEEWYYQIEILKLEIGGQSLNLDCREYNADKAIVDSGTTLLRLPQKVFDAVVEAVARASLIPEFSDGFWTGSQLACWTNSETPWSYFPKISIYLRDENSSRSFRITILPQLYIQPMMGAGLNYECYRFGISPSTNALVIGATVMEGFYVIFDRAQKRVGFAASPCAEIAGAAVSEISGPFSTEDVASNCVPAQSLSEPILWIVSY

SMILES | Ki [1] [nM] | Ki [2] [nM]
COc1cnc(C(=O)Nc2ccc3c(c2)[C@@]2(C)NC(=N)N(C)S(=O)(=O)[C@H]2CCC3)c(C)c1 [Example 32, N-((4aS,11bR)-2-imino-3,11b-dimethyl-4,4-dioxido-1,2,3,4a,5,6,7,11b-octahydrobenzo[6,7]cyclohepta[1,2-e][1,2,4]thiadiazin-10-yl)-5-methoxy-3-methylpicolinamide] | 34 | 27
COc1cnc(C(=O)Nc2ccc3c(c2)[C@@]2(C)NC(=N)N(C)S(=O)(=O)[C@H]2CCC3)cn1 [Example 34] | 52 | 17
CN1C(=N)N[C@]2(C)c3cc(NC(=O)c4ccc(C#N)cn4)ccc3CCC[C@@H]2S1(=O)=O [Example 36] | 25 | 4
CN1C(=N)N[C@]2(C)c3cc(NC(=O)c4ccc(OC(F)F)cn4)ccc3CCC[C@H]2S1(=O)=O [Example 38, 5-(difluoromethoxy)-N-((4aR,11bR)-2-imino-3,11b-dimethyl-4,4-dioxido-1,2,3,4a,5,6,7,11b-octahydrobenzo[6,7]cyclohepta[1,2-e][1,2,4]thiadiazin-10-yl)picolinamide] | 857 | 80
CN1C(=N)N[C@]2(C)c3cc(NC(=O)c4ccc(C#N)cn4)ccc3CCC[C@H]2S1(=O)=O [Example 39] | 315 | 60
COc1cnc2c(Nc3ccc4c(c3)[C@@]3(C)NC(=N)N(C)S(=O)(=O)[C@H]3CCO4)nccc2n1 [Example 41, (4aS,11bR)-2-imino-10-((2-methoxypyrido[3,4-b]pyrazin-5-yl)amino)-3,11b-dimethyl-2,3,4a,5,6,11b-hexahydro-1H-benzo[2,3]oxepino[4,5-e][1,2,4]-thiadiazine 4,4-dioxide] | 135 | 60
COc1cnc2c(Nc3ccc4c(c3)[C@@]3(C)NC(=N)N(C)S(=O)(=O)[C@H]3CCC4)nccc2c1 [Example 46, (4aS,11bR)-2-imino-10-((3-methoxy-1,7-naphthyridin-8-yl)amino)-3,11b-dimethyl-1,2,3,4a,5,6,7,11b-octahydrobenzo[6,7]cyclohepta[1,2-e][1,2,4]-thiadiazine 4,4-dioxide] | 251 | 108
CN1C(=N)N[C@]2(C)c3cc(NC4CCCC4)ccc3OCC[C@@H]2S1(=O)=O [Example 47, (4aS,11bR)-10-(cyclopentylamino)-2-imino-3,11b-dimethyl-2,3,4a,5,6,11b-hexahydro-1H-benzo[2,3]oxepino[4,5-e][1,2,4]thiadiazine 4,4-dioxide] | 716 | 348
CN1C(=N)N[C@]2(C)c3cc(NCC4CC4)ccc3OCC[C@@H]2S1(=O)=O [Example 48, (4aS,11bR)-10-((cyclopropylmethyl)amino)-2-imino-3,11b-dimethyl-2,3,4a,5,6,11b-hexahydro-1H-benzo[2,3]oxepino[4,5-e][1,2,4]thiadiazine 4,4-dioxide] | 2010 | 880
CCCNc1ccc2c(c1)[C@@]1(C)NC(=N)N(C)S(=O)(=O)[C@H]1CCO2 [Example 49, (4aS,11bR)-2-imino-3,11b-dimethyl-10-(propylamino)-2,3,4a,5,6,11b-hexahydro-1H-benzo[2,3]oxepino[4,5-e][1,2,4]thiadiazine 4,4-dioxide] | 1980 | 918

Continued, values first:

Ki [1] [nM] | Ki [2] [nM] | SMILES
86 | 48 | COc1cnc(C(=O)Nc2ccc3c(c2)[C@@]2(C)NC(=N)N(C)S(=O)(=O)[C@H]2CCC3)c(C)n1 [Example 33]
10 | 19 | Cc1cc(C#N)cnc1C(=O)Nc1ccc2c(c1)[C@@]1(C)NC(=N)N(C)S(=O)(=O)[C@H]1CCC2 [Example 35, 5-cyano-N-((4aS,11bR)-2-imino-3,11b-dimethyl-4,4-dioxido-1,2,3,4a,5,6,7,11b-octahydrobenzo[6,7]cyclohepta[1,2-e][1,2,4]thiadiazin-10-yl)-3-methylpicolinamide]
96 | 159 | CN1C(=N)N[C@]2(C)c3cc(NC(=O)c4ccc(F)cn4)ccc3CCC[C@H]2S1(=O)=O [Example 37, 5-fluoro-N-((4aR,11bR)-2-imino-3,11b-dimethyl-4,4-dioxido-1,2,3,4a,5,6,7,11b-octahydrobenzo[6,7]cyclohepta[1,2-e][1,2,4]thiadiazin-10-yl)picolinamide]
2710 | 1390 | Cc1cnc(C(=O)Nc2ccc3c(c2)[C@@]2(C)NC(=N)N(C)S(=O)(=O)[C@@H]2CCC3)cn1 [Example 40, N-((4aR,11bR)-2-imino-3,11b-dimethyl-4,4-dioxido-1,2,3,4a,5,6,7,11b-octahydrobenzo[6,7]cyclohepta[1,2-e][1,2,4]thiadiazin-10-yl)-5-methylpyrazine-2-carboxamide]
1790 | 412 | COc1cnc2c(Nc3ccc4c(c3)[C@@]3(C)NC(=N)N(C)S(=O)(=O)[C@H]3CCO4)ccnc2c1 [Example 42, (4aS,11bR)-2-imino-10-((7-methoxy-1,5-naphthyridin-4-yl)amino)-3,11b-dimethyl-2,3,4a,5,6,11b-hexahydro-1H-benzo[2,3]oxepino[4,5-e][1,2,4]-thiadiazine 4,4-dioxide]
148 | 57 | COc1cnc2c(Nc3ccc4c(c3)[C@@]3(C)NC(=N)N(C)S(=O)(=O)[C@H]3CCO4)nccc2c1 [Example 43, (4aS,11bR)-2-imino-10-((3-methoxy-1,7-naphthyridin-8-yl)amino)-3,11b-dimethyl-2,3,4a,5,6,11b-hexahydro-1H-benzo[2,3]oxepino[4,5-e][1,2,4]-thiadiazine 4,4-dioxide]
173 | 45 | COc1cnc2c(Nc3ccc4c(c3)[C@@]3(C)NC(=N)N(C)S(=O)(=O)[C@H]3CCC4)nccc2n1 [Example 44, (4aS,11bR)-2-imino-10-((2-methoxypyrido[3,4-b]pyrazin-5-yl)amino)-3,11b-dimethyl-1,2,3,4a,5,6,7,11b-octahydrobenzo[6,7]cyclohepta[1,2-e][1,2,4]-thiadiazine 4,4-dioxide]
2440 | 547 | COc1cnc2c(Nc3ccc4c(c3)[C@@]3(C)NC(=N)N(C)S(=O)(=O)[C@H]3CCC4)ccnc2n1 [Example 45, (4aS,11bR)-2-imino-10-((3-methoxypyrido[2,3-b]pyrazin-8-yl)amino)-3,11b-dimethyl-1,2,3,4a,5,6,7,11b-octahydrobenzo[6,7]cyclohepta[1,2-e][1,2,4]-thiadiazine 4,4-dioxide]

From patent US10238743B2 (Merck Sharp & Dohme Corp., priority 2014, dated 2019)
